Test results as given in article PMC6257627, “Target Validation and Identification of Novel Boronate Inhibitors of the Plasmodium falciparum Proteasome” (Journal of Medicinal Chemistry, 2018).
Several values for one entry are separate records, joined by “and”; a condition that tells them apart may be missing. Equal values may be shown once.

Key:
[1] = system: Cam3.II^R539T early ring stages; assay: Isobologram analysis of interaction with DHA, 3 h pulse; assay type: cell-based, P. falciparum; conditions: early ring stages of K13 mutant Cam3.II^R539T, 3 h pulses
Procedure: (§1) Figure 1 Structures, proteasome inhibition, and isobologram analysis of selected compounds. (A) Structures of MPI-1, MPI-2, MPI-3, and MPI-4 (compounds 1–4). (B) GFP-DD transfectants were maintained in Shield-1 for 24 h before wash-out prior to setting up experiments. Trophozoites were re-exposed to Shield-1 or exposed to indicated compounds for 3 h. Results are representative of four independent experiments. (i) Cell extracts were analyzed by Western blot using anti-GFP or anti-PfBiP as a loading control. (ii) GFP fluorescence measured by flow cytometry. Dotted line represents background (fluorescence of sample after washout of Shield-1). Data are the mean ± range/2 for the readings in technical duplicate from one experiment. […]
For standard assays of antiplasmodial activity, sorbitol-treated ring stage parasites were incubated with the drugs for 72 h and viability was assessed in the second cycle.[12] […] Cells were then stained with 2 μM Syto-61 (Thermo Fisher Scientific), and their fluorescence was measured by flow cytometry (FACSCanto II cytometer; Becton Dickinson). Data were gated and analyzed using FCS Express software (version 3) to determine parasitemia of each sample. […] Interactions between DHA and MPI-1 or MPI-4 against the K13 mutant (DHA resistant) Cam3.II P. falciparum strain, exposed to a 3 h pulsed treatment, were determined at 4 h after invasion as described previously.[12]

[2] = system: P. falciparum proteasome activity in cells (GFP-DD transfectants); assay: GFP-DD reporter degradation in transfectants (Western blot, flow cytometry); assay type: cell-based; conditions: trophozoites, 3 h exposure
Procedure: as §1, with “experiment. Curves are fitted with the sigmoidal four-parameter model. (C) Isobologram analysis of the interaction of test compounds and DHA. Cam3.II (DHA resistant) parasites at very early ring stages were subjected to 3 h pulses in the presence of different combinations of DHA and test compounds.” for “experiment.”
Trophozoite-stage parasite cultures (GFP-DD parasites) at 5% hematocrit and 5% parasitemia were subjected to the drug treatment indicated in the figure legends at 37 °C. […] Syto-61 and GFP fluorescence was recorded using the FACSCanto II cytometer (Becton Dickinson). […] Parasites were gated based on parasite GFP fluorescence, and values reported are mean fluorescence. […]

[3] = system: Cam3.II^R539T early ring stages; parameters: method as in PMID 25901609; conditions: P. falciparum in culture; cited from earlier work
[4] = system: 3D7 B2a; assay: 72 h viability assay, bortezomib-resistant clone B2a; assay type: cell-based, Plasmodium falciparum; conditions: mean ± SEM, n=3
Procedure: For standard assays of antiplasmodial activity, sorbitol-treated ring stage parasites were incubated with the drugs for 72 h and viability was assessed in the second cycle.[12] Drug pulse assays were performed as described previously.[47] For short pulse assays, tightly synchronized early ring stage parasites (1–3 h after invasion) at 0.2% hematocrit and 1–2% parasitemia were subjected to 3 h drug pulse at 37 °C and returned to culture until parasites reached trophozoite stage of the following cycle. Cells were then stained with 2 μM Syto-61 (Thermo Fisher Scientific), and their fluorescence was measured by flow cytometry (FACSCanto II cytometer; Becton Dickinson). Data were gated and analyzed using FCS Express software (version 3) to determine parasitemia of each sample. Viability represents the parasitemia normalized to untreated and “kill treated” controls, where “kill treated” refers to samples treated with 2 μM DHA for 48–72 h. Interactions between DHA and MPI-1 or MPI-4 against the K13 mutant (DHA resistant) Cam3.II P. falciparum strain, exposed to a 3 h pulsed treatment, were determined at 4 h after invasion as described previously.[12]
Prior to selection, an aliquot of the parental line was stocked as a reference for subsequent whole genome sequencing analysis. […] Paired-end reads were either aligned to the P. falciparum 3D7 reference genome (PlasmoDB version 13.0).

[5] = target: human constitutive 20S proteasome β2c (Homo sapiens, UniProt P49720+Q99436); assay: Kinetic analysis, human constitutive 20S β2 (Ac-RQR-AMC); assay type: biochemical; conditions: Figure S3A
Procedure: (§2) Figure S 3. Kinetic analysis of MPI -4 against Pf20S and human constitutive 20S proteasome.
(§3) The association rate K on, half -life t 1/2 and equilibrium constant Ki for MPI -4 against human constitutive 20S (A, B) and Pf20S (C, D). 20S β2 (A, C) and β5 (B, D) activities were determined using fluorogenic substrates, Ac -RQR-AMC (human) or Ac -WLR-AMC ( P. falciparum ) and Ac - […]

[6] = target: T1, human constitutive 20S proteasome β5c (Homo sapiens, UniProt P20618+P28074); assay: Kinetic analysis, human constitutive 20S β5 (Ac-WLA-AMC); assay type: biochemical; conditions: Figure S3B
T1 construct: Residue positions are calculated at the start of the processed protein, and the first residue (Thr 1)
Procedure: as §2, §3

[7] = target: Pf20S β2 (Plasmodium falciparum, UniProt Q8I261+Q8I6T3); assay: Kinetic analysis, Pf20S β2 (Ac-WLR-AMC); assay type: biochemical, P. falciparum; conditions: Figure S3C
Procedure: as §2, §3

[8] = target: Pf20S β5 (Plasmodium falciparum, UniProt A0A5K1K7U1+Q8IJT1); assay: Kinetic analysis, Pf20S β5 (Ac-WLA-AMC); assay type: biochemical, P. falciparum; conditions: Figure S3D
Procedure: as §2, §3

Pf20S β2, sequence (Q8I6T3 entry or part of it): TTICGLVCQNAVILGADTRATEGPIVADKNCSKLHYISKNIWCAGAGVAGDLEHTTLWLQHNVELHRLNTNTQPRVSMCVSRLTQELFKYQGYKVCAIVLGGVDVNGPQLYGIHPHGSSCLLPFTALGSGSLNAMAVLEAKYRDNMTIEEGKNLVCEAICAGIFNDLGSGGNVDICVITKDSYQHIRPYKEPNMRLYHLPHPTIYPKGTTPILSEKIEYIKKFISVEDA
Pf20S β2, sequence (Q8I261 entry or part of it): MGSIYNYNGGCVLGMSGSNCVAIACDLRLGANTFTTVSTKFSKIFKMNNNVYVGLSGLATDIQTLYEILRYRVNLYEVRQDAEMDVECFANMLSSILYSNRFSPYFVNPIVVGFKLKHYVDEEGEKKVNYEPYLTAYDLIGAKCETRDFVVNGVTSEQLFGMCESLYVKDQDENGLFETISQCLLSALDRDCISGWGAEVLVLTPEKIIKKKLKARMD
Pf20S β5, sequence (Q8IJT1 entry or part of it): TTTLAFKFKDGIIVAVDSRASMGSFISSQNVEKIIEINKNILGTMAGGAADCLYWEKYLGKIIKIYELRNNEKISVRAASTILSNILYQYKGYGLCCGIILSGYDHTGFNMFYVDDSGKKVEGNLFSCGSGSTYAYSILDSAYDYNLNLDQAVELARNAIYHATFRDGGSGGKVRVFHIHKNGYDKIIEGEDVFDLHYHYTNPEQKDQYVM
Pf20S β5, sequence (A0A5K1K7U1 entry or part of it): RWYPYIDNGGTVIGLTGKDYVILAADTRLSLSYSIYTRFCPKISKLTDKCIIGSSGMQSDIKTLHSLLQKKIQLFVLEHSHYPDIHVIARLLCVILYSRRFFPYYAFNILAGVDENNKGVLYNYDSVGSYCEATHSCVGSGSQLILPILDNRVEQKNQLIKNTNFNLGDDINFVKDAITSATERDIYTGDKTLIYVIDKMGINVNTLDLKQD

Row | Compound | interaction with DHA [1] | inhibition of GFP-DD degradation in the absence of Shield-1 [2] | interaction with DHA (earlier work) [3] | LD50 (72 h), 3D7 B2a [4] | koff ([5]; read-out: Koff, h20S β2) | kon ([5]; read-out: association rate Kon, h20S β2) | Ki ([5]; equilibrium constant) | koff ([6]; read-out: Koff, h20S β5) | kon ([6]; read-out: association rate Kon, h20S β5) | Ki ([6]; equilibrium constant) | koff ([7]; read-out: Koff, Pf 20S β2) | kon ([7]; read-out: association rate Kon, Pf 20S β2) | Ki ([7]; equilibrium constant, read-out: Ki, P. falciparum β2) | koff ([8]; read-out: Koff, Pf 20S β5) | kon ([8]; read-out: association rate Kon, Pf 20S β5) | Ki ([8]; equilibrium constant, read-out: Ki, P. falciparum β5)
1 | CC(=O)N1CCC[C@@H]1C(=O)N[C@@H](C)C(=O)N[C@@H](Cc1ccccc1)B(O)O [MPI-1] | pronounced synergistic interaction | a higher concentration of MPI-1 was needed to produce the same level of inhibition | – | – | – | – | – | – | – | – | – | – | – | – | – | –
2 | CC(C)C[C@H](NC(=O)[C@H](Cc1ccccc1)NC(=O)c1cnccn1)B(O)O [bortezomib, reference compound] | – | prevented GFP-DD degradation | strong synergism | 1.1 ± 0.1 µM | – | – | – | – | – | – | – | – | – | – | – | –
3 | CC(C)C[C@H](NC(=O)[C@H](Cc1ccccc1)NC(=O)Cc1ccc(O)cc1)B(O)O [MPI-4] | pronounced synergistic interaction | – | – | – | 0.00485 s⁻¹ | 9960 M⁻¹ s⁻¹ | 487 nM and 490 nM | 0.000109 s⁻¹ | 848000 M⁻¹ s⁻¹ | 0.1 nM | 0.000173 s⁻¹ | 27200 M⁻¹ s⁻¹ | ~5 nM | 0.000181 s⁻¹ | 41800 M⁻¹ s⁻¹ | ~5 nM
